ChEMBL document CHEMBL4417631, “Oral peptide inhibitors of interleukin-23 receptor and their use to treat inflammatory bowel diseases” (2017)
Where a SMILES comes first, the peptide text is derived from it. [ ]: non-standard residue; d: D form. Phe(3,4-(OMe)2) = COc1ccc(C[C@H](N)C(=O)O)cc1OC; Phe(4-CONH2) = NC(=O)c1ccc(C[C@H](N)C(=O)O)cc1; 2Nal = N[C@@H](Cc1ccc2ccccc2c1)C(=O)O; AEF = NCCOc1ccc(C[C@H](N)C(=O)O)cc1; Pen = CC(C)(S)[C@H](N)C(=O)O; αMeV = CC(C)[C@](C)(N)C(=O)O; Aib = CC(C)(N)C(=O)O

Biological target: T1, Interleukin-23 receptor (Homo sapiens, UniProt Q5VWK5)
T1 sequence (Q5VWK5 whole entry): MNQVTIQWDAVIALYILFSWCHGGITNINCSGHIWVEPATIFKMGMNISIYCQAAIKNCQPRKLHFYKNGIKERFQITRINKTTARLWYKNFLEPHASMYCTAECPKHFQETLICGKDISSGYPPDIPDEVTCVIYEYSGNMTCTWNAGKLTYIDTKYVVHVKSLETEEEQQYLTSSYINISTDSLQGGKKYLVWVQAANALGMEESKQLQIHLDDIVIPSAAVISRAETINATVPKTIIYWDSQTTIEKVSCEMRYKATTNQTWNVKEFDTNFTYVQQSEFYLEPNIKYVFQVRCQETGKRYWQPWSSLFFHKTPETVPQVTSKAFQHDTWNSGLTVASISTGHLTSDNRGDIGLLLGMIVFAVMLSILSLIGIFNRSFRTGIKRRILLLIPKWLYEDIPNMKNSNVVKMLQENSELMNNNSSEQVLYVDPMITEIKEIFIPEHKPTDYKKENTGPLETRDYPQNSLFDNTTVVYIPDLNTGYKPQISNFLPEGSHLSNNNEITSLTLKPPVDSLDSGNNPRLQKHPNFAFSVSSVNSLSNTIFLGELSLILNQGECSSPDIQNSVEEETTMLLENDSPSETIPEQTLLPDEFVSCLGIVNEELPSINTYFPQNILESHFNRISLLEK
Experiment: Inhibition of interleukin-23 receptor in human DB cells assessed as reduction in IL-23-stimulated STAT3 phosphorylation incubated for 30 mins by HTRF assay
Format: cell-based

Compound	IC50 [nM]
CC(=O)N[C@H]1CCSC[C@@H](C(=O)N[C@H]2Cc3ccc(cc3)OCCNC(=O)C[C@@H](C(=O)NCC(N)=O)NC(=O)[C@H](CCC(N)=O)NC(=O)[C@](C)(CC(C)C)NC(=O)[C@H](Cc3ccc4ccccc4c3)NC2=O)NC(=O)[C@H](CCC(N)=O)NC(=O)[C@H](Cc2c[nH]c3ccccc23)NC(=O)[C@H]([C@@H](C)O)NC(=O)[C@H](CCC(N)=O)NC1=O	100 to 1000
CC(=O)NCCCC[C@H](NC(=O)C(C)(C)NC(=O)[C@H](Cc1ccc2ccccc2c1)NC(=O)[C@H](Cc1ccc(OCCN)cc1)NC(=O)[C@@H](NC(=O)[C@H](CCC(N)=O)NC(=O)[C@H](Cc1c[nH]c2ccccc12)NC(=O)[C@@H](NC(=O)[C@@H](NC(=O)[C@@H](NC(C)=O)C(C)(C)S)[C@@H](C)O)[C@@H](C)O)C(C)(C)S)C(=O)N[C@@H](CC(N)=O)C(=O)N[C@@H](CCC(N)=O)C(N)=O	< 10
COc1ccc(C[C@H](NC(=O)[C@@H](NC(=O)[C@H](CCC(N)=O)NC(=O)[C@H](Cc2c[nH]c3ccccc23)NC(=O)[C@@H](NC(=O)[C@H](CCC(N)=O)NC(=O)[C@@H](NC(C)=O)C(C)(C)S)[C@@H](C)O)C(C)(C)S)C(=O)N[C@@H](Cc2ccc3ccccc3c2)C(=O)N[C@@H](CCC(C)C)C(=O)N[C@@H](CCCCNC(C)=O)C(=O)N[C@@H](CC(N)=O)C(=O)NCCC(N)=O)cc1	< 10
CC(=O)NCCCC[C@H](NC(=O)C(C)(C)NC(=O)[C@H](Cc1ccc2ccccc2c1)NC(=O)[C@H](Cc1ccc(OCCN)cc1)NC(=O)[C@@H](NC(=O)[C@H](CCC(N)=O)NC(=O)[C@H](Cc1c[nH]c2ccccc12)NC(=O)[C@@H](NC(=O)[C@H](CCC(N)=O)NC(=O)[C@@H](NC(=O)[C@H](Cc1ccc2ccccc2c1)NC(C)=O)C(C)(C)S)[C@@H](C)O)C(C)(C)S)C(=O)N[C@@H](CC(N)=O)C(=O)N[C@@H](CC(N)=O)C(N)=O	< 10
COc1ccc(C[C@H](NC(=O)[C@@H](NC(=O)[C@H](CCC(N)=O)NC(=O)[C@H](Cc2c[nH]c3ccccc23)NC(=O)[C@@H](NC(=O)[C@H](CC(N)=O)NC(=O)[C@@H](NC(C)=O)C(C)(C)S)[C@@H](C)O)C(C)(C)S)C(=O)N[C@@H](Cc2ccc3ccccc3c2)C(=O)NC(C)(C)C(=O)N[C@@H](CCCCNC(C)=O)C(=O)N[C@@H](CC(N)=O)C(=O)N[C@@H](C)C(N)=O)cc1	< 10
CC(=O)NCCOc1ccc(C[C@H](NC(=O)[C@@H](NC(=O)[C@H](CCC(N)=O)NC(=O)[C@H](Cc2c[nH]c3ccccc23)NC(=O)[C@@H](NC(=O)[C@H](CCC(N)=O)NC(=O)[C@@H](NC(C)=O)C(C)(C)S)[C@@H](C)O)C(C)(C)S)C(=O)N[C@@H](Cc2ccc3ccccc3c2)C(=O)N[C@](C)(C(=O)N[C@@H](CCCCN)C(=O)N[C@@H](CC(N)=O)C(=O)N[C@@H](CC(N)=O)C(N)=O)C(C)C)cc1	< 10
CC(=O)NCCCC[C@H](NC(=O)C(C)(C)NC(=O)[C@H](Cc1ccc2ccccc2c1)NC(=O)[C@H](Cc1ccc(OCCN)cc1)NC(=O)[C@@H](NC(=O)[C@H](CCC(N)=O)NC(=O)[C@H](Cc1c[nH]c2ccccc12)NC(=O)[C@@H](NC(=O)[C@H](CCC(N)=O)NC(=O)[C@@H](NC(=O)[C@@H](Cc1ccccc1)NC(C)=O)C(C)(C)S)[C@@H](C)O)C(C)(C)S)C(=O)N[C@@H](CC(N)=O)C(=O)N[C@@H](CC(N)=O)C(N)=O	< 10
CC(=O)NCCCC[C@H](NC(=O)C(C)(C)NC(=O)[C@H](Cc1ccc2ccccc2c1)NC(=O)[C@H](Cc1ccc(OCCN)cc1)NC(=O)[C@@H](NC(=O)[C@H](CCC(N)=O)NC(=O)[C@H](Cc1c[nH]c2ccccc12)NC(=O)[C@@H](NC(=O)[C@H](CCC(N)=O)NC(=O)[C@@H](NC(=O)[C@@H](CCCNC(=N)N)NC(C)=O)C(C)(C)S)[C@@H](C)O)C(C)(C)S)C(=O)N[C@@H](CC(N)=O)C(=O)N[C@@H](CC(N)=O)C(N)=O	< 10
CC(=O)NCCCC[C@H](NC(=O)[C@H](CCC(C)C)NC(=O)[C@H](Cc1ccc2ccccc2c1)NC(=O)[C@H](Cc1ccc(OCCN)cc1)NC(=O)[C@@H](NC(=O)[C@H](CCC(N)=O)NC(=O)[C@H](Cc1c[nH]c2ccccc12)NC(=O)[C@@H](NC(=O)[C@H](CCC(N)=O)NC(=O)[C@@H](NC(C)=O)C(C)(C)S)[C@@H](C)O)C(C)(C)S)C(=O)N[C@@H](CC(N)=O)C(=O)NCCC(N)=O	< 10
COc1ccc(C[C@H](NC(=O)[C@H](Cc2ccc(C(N)=O)cc2)NC(=O)[C@@H](NC(=O)[C@H](CCC(N)=O)NC(=O)[C@H](Cc2c[nH]c3ccccc23)NC(=O)[C@@H](NC(=O)[C@H](CCC(N)=O)NC(=O)[C@@H](NC(C)=O)C(C)(C)S)[C@@H](C)O)C(C)(C)S)C(=O)N[C@](C)(C(=O)N[C@@H](CCCCNC(C)=O)C(=O)N[C@@H](CC(N)=O)C(=O)N[C@@H](CC(N)=O)C(N)=O)C(C)C)cc1OC (Ac-[Pen]QTWQ[Pen][Phe(4-CONH2)][Phe(3,4-(OMe)2)][αMeV]K(Ac)NN-NH2)	10 to 25
CC(=O)NCCCC[C@H](NC(=O)[C@](C)(CCCCN)NC(=O)[C@H](Cc1ccc2ccccc2c1)NC(=O)[C@H](Cc1ccc(OCCN)cc1)NC(=O)[C@@H]1CSCC[C@H](NC(C)=O)C(=O)N[C@@H](CCC(N)=O)C(=O)N[C@@H]([C@@H](C)O)C(=O)N[C@@H](Cc2c[nH]c3ccccc23)C(=O)N[C@@H](CCC(N)=O)C(=O)N1)C(=O)N[C@@H](CC(=O)NCCCCN)C(=O)NCC(N)=O	25 to 100
CC(=O)N[C@H]1CCSC[C@@H](C(=O)N[C@@H](Cc2ccc(OCCN)cc2)C(=O)N[C@@H](Cc2c[nH]c3ccc(O)cc23)C(=O)NC(C)(C)C(=O)N[C@@H](CCC(N)=O)C(=O)N[C@@H](CC(N)=O)C(=O)NCC(N)=O)NC(=O)[C@H](CCC(N)=O)NC(=O)[C@H](Cc2c[nH]c3ccccc23)NC(=O)[C@H]([C@@H](C)O)NC(=O)[C@H](CCC(N)=O)NC1=O	10 to 25
CC(=O)NCCCC[C@H](NC(=O)C(C)(C)NC(=O)[C@H](Cc1ccc2ccccc2c1)NC(=O)[C@H](Cc1ccc(OCCN)cc1)NC(=O)[C@@H](NC(=O)[C@H](CCC(N)=O)NC(=O)[C@H](Cc1c[nH]c2ccccc12)NC(=O)[C@@H](NC(=O)[C@H](CCC(N)=O)NC(=O)[C@@H](NC(=O)[C@@H](NC(C)=O)[C@@H](C)O)C(C)(C)S)[C@@H](C)O)C(C)(C)S)C(=O)N[C@@H](CC(N)=O)C(=O)N[C@@H](CC(N)=O)C(N)=O (Ac-T[Pen]QTWQ[Pen][AEF][2Nal][Aib]K(Ac)NN-NH2)	< 10
COc1ccc(C[C@H](NC(=O)[C@@H](NC(=O)[C@H](CCC(N)=O)NC(=O)[C@H](Cc2c[nH]c3ccccc23)NC(=O)[C@@H](NC(=O)[C@H](CCC(N)=O)NC(=O)[C@@H](NC(C)=O)C(C)(C)S)[C@@H](C)O)C(C)(C)S)C(=O)N[C@@H](Cc2ccc3ccccc3c2)C(=O)NC(C)(C)C(=O)N[C@@H](CCCCNC(C)=O)C(=O)N[C@@H](CC(N)=O)C(=O)N[C@@H](CCC(N)=O)C(N)=O)cc1	< 10
CC(=O)N[C@@H](CS)C(=O)N[C@@H](CN)C(=O)N[C@H](C(=O)N[C@@H](Cc1c[nH]c2ccccc12)C(=O)N[C@@H](CCC(N)=O)C(=O)N[C@@H](CS)C(=O)N[C@@H](Cc1ccc(O)cc1)C(=O)N[C@@H](Cc1c[nH]c2ccccc12)C(=O)N[C@@H](CCCNC(=N)N)C(=O)N[C@H](C(=O)N[C@@H](Cc1ccccc1)C(=O)NCC(=O)NCCOCC(=O)N[C@H](CCCCN)C(N)=O)C(C)C)[C@@H](C)O	100
